In PubChem BioAssay (NCI):
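Assay format: 96-well plates, 48-hour exposure. GI50 = concentration required for 50% inhibition of growth. Definition used: TGI = concentration required for complete inhibition of growth.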

Tests used:
Assay in all cases: NCI tumour cell line growth inhibition, 48 h
[1] = system: UO-31 renal
[2] = system: UACC-62 melanoma
[3] = system: HCT-116 colon
[4] = system: CCRF-CEM leukemia
[5] = system: SR leukemia
[6] = system: HOP-92 NSCLC
[7] = system: NCI-H460 lung
[8] = system: SK-MEL-28 melanoma
[9] = system: U251 CNS
[10] = system: EKVX NSCLC

Structure (SMILES) | GI50 [1] [µM] | TGI [1] [µM] | GI50 [2] [µM] | TGI [2] [µM] | GI50 [3] [µM] | TGI [3] [µM] | GI50 [4] [µM] | TGI [4] [µM] | GI50 [5] [µM] | TGI [5] [µM] | GI50 [6] [µM] | TGI [6] [µM] | GI50 [7] [µM] | TGI [7] [µM] | GI50 [8] [µM] | TGI [8] [µM] | GI50 [9] [µM] | TGI [9] [µM] | TGI [10] [µM] | GI50 [10] [µM]
Nc1nc(Nc2cccc(F)c2)nc2ccccc12 | 19 | 61.2 | 17.8 | 38.3 | 18.1 | 46.4 | 24.6 | > 100 | 24.7 | 80.7 | 13.8 | 38.5 | 20.1 | 57.3 | 15 | 29 | 16.8 | 34.6 | – | –
CCOC(=O)/C(C#N)=C1\N[C@H](C(=O)OCC)CO1 | – | > 100 | – | > 100 | – | > 100 | – | > 100 | – | > 100 | – | – | – | > 100 | – | > 100 | – | > 100 | > 100 | –
CC1CC2(CC[C@@H]1O)OCCO2 (stereo not given in full) | – | > 100 | – | > 100 | – | > 100 | – | > 100 | – | – | – | > 100 | – | > 100 | – | – | – | > 100 | > 100 | –
COC(=O)[C@@H]1CCCN1C(=O)[C@@H]1CCCN1C(=O)[C@@H](Cc1c[nH]c2ccccc12)NC(=S)Nc1cc(C(F)(F)F)cc(C(F)(F)F)c1 | 5.44 | > 100 | 3.68 | 20.4 | 4.03 | > 100 | 3.39 | > 100 | 2.39 | 6.44 | 1.46 | 5.26 | 4.77 | > 100 | 1.95 | 4.54 | 4.31 | 95.3 | – | –
CC(=O)C1=C([O-])C(C)OC1=O.CC(=O)C1=C([O-])C(C)OC1=O.[NH-]C1CCCC[C@H]1[NH-].[Pt+4] (stereo not given) | > 100 | > 100 | 42.3 | > 100 | 45.6 | > 100 | – | – | – | – | – | – | 30.5 | > 100 | 43.8 | > 100 | > 100 | > 100 | > 100 | > 100
CC(CCCOC(c1ccccc1)(c1ccccc1)c1ccccc1)OC(=O)Nc1cc([N+](=O)[O-])cc([N+](=O)[O-])c1 (stereo not given) | – | > 100 | – | 50.2 | – | > 100 | – | > 100 | – | > 100 | – | – | – | 73.2 | – | 54.4 | – | 83.8 | 97 | –
CCC1CN2CCc3cc(OC)c(OC)cc3C2CC1CC1c2cc(OC)c(OC)cc2CCN1C(=O)CNC(=O)OC(C)(C)C (stereo not given) | – | 68.3 | – | 56.4 | – | – | – | 15.2 | – | – | – | – | – | 46.4 | – | 61 | – | > 100 | 32.9 | –
COC(=O)[C@]1(C)CCC[C@@]2(C)C1CCC1=C[C@@]3(C(C)C)CC[C@]12OO3 (stereo not given in full) | – | 40.2 | – | 72.3 | – | 73 | – | 45.1 | – | 40.7 | – | – | – | 56.5 | – | – | – | > 100 | > 100 | –
CC1=CC(=O)C(C(C)=Nc2ccccc2Cl)C(=O)O1 (stereo not given) | > 100 | > 100 | > 100 | > 100 | > 100 | > 100 | > 100 | > 100 | – | – | 94.4 | > 100 | > 100 | > 100 | > 100 | > 100 | > 100 | > 100 | > 100 | > 100
CCO[C@@H]1C2C=CC(C2)[C@H]1[N+](=O)[O-] (stereo not given in full) | – | > 100 | – | > 100 | – | > 100 | – | > 100 | – | – | – | > 100 | – | > 100 | – | > 100 | – | > 100 | > 100 | –
Cc1cccc(C)c1NC(=O)CCCC(=O)C1CCC/C1=N\NC(=O)C(=O)NN (stereo not given) | – | > 100 | – | – | – | > 100 | – | > 100 | – | – | – | – | – | > 100 | – | > 100 | – | > 100 | > 100 | –
COC(=O)C(=O)C(C(=O)C=C(C)C)C(=O)C(=O)Nc1cccc(C(C)=O)c1 (stereo not given) | – | > 100 | – | > 100 | – | > 100 | – | > 100 | – | > 100 | – | – | – | > 100 | – | > 100 | – | > 100 | > 100 | –
CS(=O)(=O)Nc1cc(-c2ccc3ncnc(Nc4ccc5c(cnn5Cc5ccc(F)cc5)c4)c3c2)cnc1Cl | – | – | 0.607 | 2.98 | 2.92 | 21.7 | 0.822 | > 100 | 1.71 | 6.73 | – | – | 2.8 | 13.3 | 0.803 | 7.17 | 1.41 | 11.1 | 18.4 | 2.21
Cc1c(C)c2ccc(OC/C=C3\CCC(=O)O3)cc2oc1=O | 10.6 | 22.4 | 14.5 | 28.3 | 13.3 | 26.3 | 17.4 | 58.4 | – | – | 15 | 31.2 | 16.4 | 35.6 | 14.3 | 28.1 | 15.7 | 29.3 | 40 | 18.7
COc1ccc(COCC(Cn2ccnc2)OCc2ccc(C(=O)O)cc2)cc1 (stereo not given) | – | > 100 | – | > 100 | – | > 100 | – | > 100 | – | – | – | > 100 | – | > 100 | – | > 100 | – | > 100 | > 100 | –
CC(C)[C@@H](COC(C)(C)C)N=CN1CCc2c([nH]c3ccccc23)C1 | – | > 100 | – | > 100 | – | > 100 | – | > 100 | – | – | – | 89.6 | – | > 100 | – | > 100 | – | > 100 | > 100 | –
O=c1[nH]cnc2c(C3OC(CO)C(O)C3O)scc12 (stereo not given) | 51.4 | > 100 | > 100 | > 100 | > 100 | > 100 | 0.271 | 1.16 | – | – | 5.03 | > 100 | 74 | > 100 | > 100 | > 100 | > 100 | > 100 | > 100 | > 100
CC(=O)OC1C2(CC3N4C(=O)C5(CO)SSC4(CC31O)C(=O)N5C)OC(C)C(C)(C)C2=O (stereo not given) | 0.0952 | 1.05 | 0.0103 | 0.0322 | 0.0696 | 0.212 | – | 0.175 | – | – | 0.0763 | 0.214 | < 0.0485 | 0.217 | 0.0141 | 0.0696 | < 0.01 | – | 0.709 | 0.124
